According to article PMC9409351, “Differential Ganglioside and Cholesterol Depletion by Various Cyclodextrin Derivatives and Their Effect on Synaptosomal Glutamate Release” (International Journal of Molecular Sciences, 2022):

What was measured:
[1] = tested on: rat cerebral synaptosomes; assay: Basal and 4-aminopyridine-evoked glutamate release from synaptosomes (CE-LIF); format: cell-based; details: 10 mM DIMEB, 33 mM HPBCD, 26 mM RAMEA, 85 mM HPACD; 40 min exposure; 1 mM 4-AP, 8 min
Method: After thawing and centrifugation, the cryopreserved synaptosomes were resuspended in isotonic HEPES-glucose buffer. Synaptosomal suspensions corresponding to 10 mg of synaptosomes were centrifuged to an 8-well strip plate (15 min, 2500× g, 4 °C) and the supernatant was discarded. Vehicle-treated (control) and CD-treated synaptosomes were incubated in 200 μL HEPES-glucose buffer with or without CDs, respectively, for 40 min at 37 °C. […] After incubation, the supernatant was replaced with fresh HEPES-glucose buffer containing 40 µM DL-TBOA (a competitive, non-transportable blocker of excitatory amino acid transporters that inhibits the reuptake of released glutamate) and equilibrated for 2 × 10 min at 37 °C with buffer replacement. After equilibration, the buffer was replaced by fresh HEPES-glucose buffer in the case of unstimulated groups. […] Following stimulation, aliquots were taken from the buffer at 8 min and stored at −20 °C until CE analysis. The glutamate content of the aliquots was analyzed by a capillary electrophoresis-laser induced fluorescence method developed in our laboratory. Briefly, samples were subjected to derivatization with NBD-F (1 mg/mL final concentration) in 20 mM borate buffer, pH 8.5 for 20 min at 65 °C. […] Glutamate release was normalized to the baseline release from the vehicle-treated, unstimulated synaptosomes. Data were analyzed by GraphPad Prism 8 (GraphPad Software, La Jolla, CA, USA). Concentration–response curves were constructed by the nonlinear regression method. One-way ANOVA followed by Bonferroni’s post hoc test was used for the data analysis in the case of the glutamate release experiments. All data are presented as means ± SEM of at least three parallel measurements. Differences were considered significant if p < 0.05.

[2] = tested on: GM2 and GM3 immunoreactivity; parameters: method as in PMID 27231706; details: NPC mouse model; cited from earlier work
[3] = tested on: cell model of GM1 gangliosidosis; parameters: method as in doi:10.1007/s10847-018-0835-8; details: immunofluorescence staining; cited from earlier work

| Molecule | 4-AP-evoked (stimulated) glutamate release [1] | Accumulation of GM2 and GM3 immunoreactivity [2] | Lysosomal accumulation of GM1 [3] |
| --- | --- | --- | --- |
| COC[C@H]1O[C@@H]2O[C@H]3[C@H](O)[C@@H](OC)[C@@H](O[C@H]4[C@H](O)[C@@H](OC)[C@@H](O[C@H]5[C@H](O)[C@@H](OC)[C@@H](O[C@H]6[C@H](O)[C@@H](OC)[C@@H](O[C@H]7[C@H](O)[C@@H](OC)[C@@H](O[C@H]8[C@H](O)[C@@H](OC)[C@@H](O[C@H]1[C@H](O)[C@H]2OC)O[C@@H]8COC)O[C@@H]7COC)O[C@@H]6COC)O[C@@H]5COC)O[C@@H]4COC)O[C@@H]3COC [DIMEB, heptakis(2,6-di-O-methyl)-beta-cyclodextrin] | not detected | – | – |
| CC(O)COC[C@H]1O[C@@H]2O[C@H]3[C@H](O)[C@@H](O)[C@@H](O[C@H]4[C@H](O)[C@@H](O)[C@@H](O[C@H]5[C@H](O)[C@@H](O)[C@@H](O[C@H]6[C@H](O)[C@@H](O)[C@@H](O[C@H]7[C@H](O)[C@@H](O)[C@@H](O[C@H]8[C@H](O)[C@@H](O)[C@@H](O[C@H]1[C@H](O)[C@H]2O)O[C@@H]8COCC(C)O)O[C@@H]7COCC(C)O)O[C@@H]6COCC(C)O)O[C@@H]5COCC(C)O)O[C@@H]4COCC(C)O)O[C@@H]3COCC(C)O (stereo partly drawn) [HPBCD, (2-hydroxypropyl)-beta-cyclodextrin] | still evoked glutamate release | reduces the accumulation of GM2 and GM3 immunoreactivity | – |
| (2-hydroxypropyl)-alpha-cyclodextrin [HPACD] | not detected | much less effective compared to HPBCD | reduced lysosomal accumulation of GM1 |
| randomly methylated alpha-cyclodextrin [RAMEA] | not detected | – | – |
